Tests used:
[1] = test system: rat elevated zero maze model of anxiety; test: Rat elevated zero maze model of anxiety (% time on open areas, stretched attend postures); type: in vivo, Sprague-Dawley rats
Description: The rat zero-maze model is a refined alternative to the plus-maze, the most widely used animal model of anxiety, and consists of an elevated annular platform, divided equally into four quadrants. Two opposite quadrants are enclosed by Perspex walls on both the inner and the outer edges of the platform, while the remaining two opposite quadrants are open being enclosed only by a Perspex “lip”. Animals will show a preference for the closed areas, and avoidance of the open sections is assumed to stem from a rodent's natural aversion to open, exposed spaces. The primary index of anxiety, which reflect changes in open arm preference, is the percentage of time spent on the open areas. A reduction in the amount of activity on the open areas is considered to reflect an increase in anxiety. Other, ethologically-based behaviours are also assessed as indices of anxiety. One of the most important is stretched attend postures (SAP) from closed to open quadrants. […] Shepherd, J K; et al., (1994) Behavioural and pharmacological validation of the elevated “zero-maze” as an animal model of anxiety. Psychopharmacol., 116:56-64.
Male Sprague-Dawley 200-250 g (Envigo UK) rats were used. Animals were group-housed (5 per cage; cage size: 40×40×20 cm) in a temperature-controlled environment (22±2° C.), under a 12 h light-dark cycle (lights on: 08:00 hours) for one week prior to testing. Food and water were freely available. Number of animals per group=5. Animals were moved into the experimental room 16-24 hours before testing.
The elevated 0-maze comprises a black Perspex annular platform (105 cm diameter, 10 cm width) elevated to 65 cm above ground level, divided equally into four quadrants. Two opposite quadrants are enclosed by clear red Perspex walls (27 cm high) on both the inner and outer edges of the platform, while the remaining two opposite quadrants are surrounded only by a Perspex “lip” (1 cm high) which serves as a tactile guide to animals on these open areas.
Subjects were weighed and tail marked before being injected. After a specified pre-treatment time, subjects were placed in a closed quadrant and a 5-min test period were recorded on videotape for subsequent analysis. The maze were cleaned with 5% methanol/water solution and dried thoroughly between test sessions. Behavioural measures comprise percentage time spent on the open areas (% TO) and frequency of stretched attend postures (SAP) from closed to open quadrants. Since the control groups were all treated identically with the same vehicle these were combined to increase power. The Chlordiazepoxide groups were also treated identically with the same dose so these were also combined to increase power. Animals are scored as being in the open area when all four paws were in an open quadrant and in the closed area only when all four paws have passed over the open-closed divide. All testing were carried out between 9.00 and 16.00 hours.
For each study, a 1-way ANOVA was conducted across vehicle, CDP, and drug treatment groups. Each group was compared to the vehicle group and a p-value for treatment determined by Fishers Least Significant Difference (LSD) test. This analysis was performed in GraphPad Prism (Version 9).
Intraperitoneal (IP): Racemic methylone HCl was formulated in Vehicle 1 (Saline) for injection to concentrations of 1, 3 and 6 mg/mL to provide doses of 5, 15 and 30 mg/kg when administered ip in 5 mL/kg dosing volumes.
Intraperitoneal (IP): S-methylone HCl was formulated in Vehicle 1 (Saline) for injection to concentrations of 0.5, 1, 1.5, 3 and 6 mg/mL to provide doses of 2.5, 5, 7.5, 15 and 30 mg/kg when administered ip in 5 mL/kg dosing volumes.
Intraperitoneal (IP): R-methylone HCl was formulated in Vehicle 1 (Saline) for injection to concentrations of 1, 3 and 6 mg/mL to provide doses of 5, 15 and 30 mg/kg when administered ip in 5 mL/kg dosing volumes. […]

[2] = test system: post-traumatic stress disorder (PTSD); test: Double-blind, randomized, placebo-controlled clinical trial of methylone-assisted psychotherapy in PTSD; type: in vivo, human; settings: at Study Conclusion
Description: A multicenter, randomized, double-blind, placebo-controlled trial is conducted to assess the efficacy and safety of methylone-assisted psychotherapy versus psychotherapy with placebo control in participants diagnosed with at least moderate post-traumatic stress disorder (PTSD).
This multicenter, randomized, double-blind, placebo-controlled trial is conducted at various sites in the United States with IRB approval from each study site. A flexible dose of methylone hydrochloride salt or placebo, followed by a supplemental half-dose unless contraindicated by patient's previous response or medical history, is also administered during the Treatment Period with psychotherapy in at least 3 blinded monthly Experimental Sessions. The Supplemental Dose extends the duration of drug effects on the participants during an Experimental Session. Methylone test groups are further subdivided into specific groups receiving only racemic methylone hydrochloride salt, S-methylone hydrochloride salt, or R-methylone hydrochloride salt. An optional Risk Evaluation and Mitigation Strategy (REMS) Protocol may be implemented for the racemic methylone, S-methylone, and placebo-groups. The Treatment Period lasts for approximately 12 weeks. During the Treatment Period, each Experimental Session is followed by three Intervening Sessions of non-drug psychotherapy. Each Experimental Session involves an overnight stay. The Primary Outcome measure, the change in Clinician Administered PTSD Scale for DSM-5 (CAPS-5), is determined by a blinded Independent Rater (IR) pool multiple times throughout the study. The study consists of separate periods for each participant. Initially, prospective participants undergo a Screening Period involving an initial eligibility assessment, a medical history intake, informed consent, and enrollment of eligible participants. Next, a Preparation Period is undertaken for enrolled participants involving medication tapering and clinical baseline assessments to confirm each participant meets enrollment criteria. As part of the Preparation Period, a detailed assessment of co-morbidities to PTSD is recorded. Participants may remain on prescribed courses of selective serotonin reuptake inhibitor (SSRI) or serotonin and norepinephrine reuptake inhibitor (SNRI) treatment. Dosages and/or frequency of administration of a prescribed SSRI or SNRI may be adjusted to fit within study parameters. Participants may be required to taper a prescribed course of medication in order to maintain eligibility within the study. The Treatment Period consists of three monthly Experimental Sessions and associated Intervening Sessions of integrative behavioral psychotherapy. The Treatment Period lasts approximately 12 weeks. Following the Treatment Period is a Follow-up Period and Study Conclusion. During the Follow-up Period and Study Conclusion, participants complete 4 weeks with no study visits, followed by a Study Conclusion visit.
This study compares the effects of three blinded Experimental Sessions of psychotherapy in combination with flexible doses of methylone or placebo administered as described below. Non-drug preparatory and intervening psychotherapy sessions are also included. Patient's weight is determined for dosage calculation. Initial dose is 100 mg unless this will result in a dosage of less than 1.5 mg/kg of patient weight. Initial dose thereby adjusted upward in 25 mg increments to deliver the lowest dose possible of at least 1.5 mg/kg of patient weight. Initial dose for Experimental Session 2 and 3 is cumulative dose calculated by adding the initial dose plus REMS protocol dose used the previous Experimental Session for each patient.
Randomization occurs prior to the initiation of Experimental Session 1. Each participant is provided the next randomized number in a sequence by a blinded study monitor. […]

[3] = 30 mg/kg ip, 30 min pretreatment, vs vehicle and chlordiazepoxide 6 mg/kg, male SD rats
[4] = specific (sufficient) doses ip, compared with chlordiazepoxide 6 mg/kg
[5] = compared to placebo-treated controls

For `CNC(C)C(=O)c1ccc2c(c1)OCO2` (racemic) [racemic methylone], the “time spent in the open arms” value ([1]; 5 mg/kg ip, 30 min pretreatment, vs vehicle, male SD rats) was “decrease in time spent in the open arms vs placebo”, the “frequency of SAPs” value ([1]; 15 mg/kg ip, 30 min pretreatment, male SD rats) was “dose dependent decrease in SAPs” and the “time spent in the open arms” value ([1]; 15 mg/kg ip, 30 min pretreatment, vs vehicle, male SD rats) was “no difference from placebo”. The “frequency of SAPs” value [1, 3] was “decrease in SAPs”, the “time spent in the open arms” value [1, 3] was “significant decrease in time spent in the open arms” and the anxiogenic effect ([1]; across the doses tested, ip, male SD rats) was “show anxiogenic effects at lower doses”. For the same compound, the “frequency of SAPs” value [1, 4] was “decreased the frequency of SAPs as effectively as the benzodiazepine chlordiazepoxide”, the “time in the open arms” value [1, 4] was “increase time in the open arms” and the “daytime sleepiness as measured by ESS” value [2] was “significant improvement in lessening daytime sleepiness”. For the same compound, the “clinician-rated functional impairment score as measured by SDS” value [2, 5] was “significant improvement”, the “depression as measured by HAM-D” value [2, 5] was “significant improvement” and the “change in CAPS-5 assessment” value ([2]; with psychotherapy, compared to the placebo group, PTSD participants) was “significant mean reduction”.

Reference: patent US20250129054A1 (Terran Biosciences Inc., priority 2022, published 2025)
